In publication PMC7970798 (Computational and Structural Biotechnology Journal, 2021):
No end group written: not given here.

Molecular target: PALS1 F318W (Homo sapiens, UniProt Q8N3R9, F318W)
Test: biochemical
Type: binding

Chain of PALS1 F318W (Q8N3R9 256-336 F318W limits assumed): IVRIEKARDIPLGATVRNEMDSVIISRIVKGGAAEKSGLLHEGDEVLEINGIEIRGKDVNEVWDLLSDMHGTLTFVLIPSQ

VKNLNSSRVPDLLV [SARS-CoV-2, VKNLNSSRVPDLLV]
Kd: 29 ± 4 µM
